According to ChEMBL document CHEMBL3045272, “Synthesis and fungicidal activities of novel bis(trifluoromethyl)phenyl-based strobilurins” (J Agric Food Chem, 2008):
In brackets after ≈: the same amount, converted by molar mass.

Key:
[1] = tested on: Blumeria graminis; experiment: Fungicidal activity against Blumeria graminis infected compound pre-treated wheat plants assessed as disease preventive activity at 500 ppm measured after 1 or 2 weeks; assay type: functional
[2] = tested on: Blumeria graminis; experiment: Fungicidal activity against Blumeria graminis infected compound pre-treated wheat plants assessed as disease preventive activity at 100 ppm measured after 1 or 2 weeks; assay type: functional
[3] = tested on: Blumeria graminis; experiment: Fungicidal activity against Blumeria graminis infected compound pre-treated wheat plants assessed as disease preventive activity at 3.1 ppm measured after 1 or 2 weeks; assay type: functional
[4] = tested on: Blumeria graminis; experiment: Fungicidal activity against Blumeria graminis infected compound pre-treated wheat plants assessed as disease preventive activity at 1.5 ppm measured after 1 or 2 weeks; assay type: functional
[5] = tested on: Blumeria graminis; experiment: Fungicidal activity against Blumeria graminis infected compound pre-treated wheat plants assessed as disease preventive activity at 6.2 ppm measured after 1 or 2 weeks; assay type: functional
[6] = tested on: Podosphaera fuliginea; experiment: Fungicidal activity against Podosphaera fuliginea infected compound pre-treated cucumber plants assessed as disease preventive activity at 1.56 mg/L measured after 1 or 2 weeks; assay type: functional
[7] = tested on: Podosphaera fuliginea; experiment: Fungicidal activity against Podosphaera fuliginea infected cucumber plants exposed to compound treatment 1 day post infection assessed as disease curative activity at 6.25 mg/L measured after 1 or 2 weeks; assay type: functional
[8] = tested on: Podosphaera fuliginea; experiment: Fungicidal activity against Podosphaera fuliginea infected cucumber plants exposed to compound treatment 1 day post infection assessed as disease curative activity at 1.56 mg/L measured after 1 or 2 weeks; assay type: functional
[9] = tested on: Podosphaera fuliginea; experiment: Fungicidal activity against Podosphaera fuliginea infected cucumber plants exposed to compound treatment 1 day post infection assessed as disease curative activity measured after 1 or 2 weeks; assay type: functional, organism-based
[10] = tested on: Blumeria graminis; experiment: Fungicidal activity against Blumeria graminis infected compound pre-treated wheat plants assessed as disease preventive activity at 1.56 mg/L measured after 1 or 2 weeks; assay type: functional
[11] = tested on: Podosphaera fuliginea; experiment: Fungicidal activity against Podosphaera fuliginea infected compound pre-treated cucumber plants assessed as disease preventive activity at 6.25 mg/L measured after 1 or 2 weeks; assay type: functional
[12] = tested on: Blumeria graminis; experiment: Fungicidal activity against Blumeria graminis infected compound pre-treated wheat plants assessed as disease preventive activity at 6.25 mg/L measured after 1 or 2 weeks; assay type: functional
[13] = tested on: Blumeria graminis; experiment: Fungicidal activity against Blumeria graminis infected wheat plants exposed to compound treatment 1 day post infection assessed as disease curative activity at 0.78 mg/L measured after 1 or 2 weeks; assay type: functional
[14] = tested on: Blumeria graminis; experiment: Fungicidal activity against Blumeria graminis infected compound pre-treated wheat plants assessed as disease preventive activity at 3.12 mg/L measured after 1 or 2 weeks; assay type: functional
[15] = tested on: Blumeria graminis; experiment: Fungicidal activity against Blumeria graminis infected compound pre-treated wheat plants assessed as disease preventive activity measured after 1 or 2 weeks; assay type: functional, organism-based
[16] = tested on: Podosphaera fuliginea; experiment: Fungicidal activity against Podosphaera fuliginea infected cucumber plants exposed to compound treatment 1 day post infection assessed as disease curative activity at 0.78 mg/L measured after 1 or 2 weeks; assay type: functional
[17] = tested on: Podosphaera fuliginea; experiment: Fungicidal activity against Podosphaera fuliginea infected compound pre-treated cucumber plants assessed as disease preventive activity at 0.78 mg/L measured after 1 or 2 weeks; assay type: functional
[18] = tested on: Podosphaera fuliginea; experiment: Fungicidal activity against Podosphaera fuliginea infected compound pre-treated cucumber plants assessed as disease preventive activity at measured after 1 or 2 weeks; assay type: functional, organism-based
[19] = tested on: Podosphaera fuliginea; experiment: Fungicidal activity against Podosphaera fuliginea infected cucumber plants exposed to compound treatment 1 day post infection assessed as disease curative activity at 3.12 mg/L measured after 1 or 2 weeks; assay type: functional
[20] = tested on: Podosphaera fuliginea; experiment: Fungicidal activity against Podosphaera fuliginea infected compound pre-treated cucumber plants assessed as disease preventive activity at 3.12 mg/L measured after 1 or 2 weeks; assay type: functional
[21] = tested on: Blumeria graminis; experiment: Fungicidal activity against Blumeria graminis infected wheat plants exposed to compound treatment 1 day post infection assessed as disease curative activity at 6.25 mg/L measured after 1 or 2 weeks; assay type: functional
[22] = tested on: Blumeria graminis; experiment: Fungicidal activity against Blumeria graminis infected compound pre-treated wheat plants assessed as disease preventive activity at 0.78 mg/L measured after 1 or 2 weeks; assay type: functional
[23] = tested on: Blumeria graminis; experiment: Fungicidal activity against Blumeria graminis infected wheat plants exposed to compound treatment 1 day post infection assessed as disease curative activity at 1.56 mg/L measured after 1 or 2 weeks; assay type: functional
[24] = tested on: Blumeria graminis; experiment: Fungicidal activity against Blumeria graminis infected wheat plants exposed to compound treatment 1 day post infection assessed as disease curative activity at 3.12 mg/L measured after 1 or 2 weeks; assay type: functional
[25] = tested on: Blumeria graminis; experiment: Fungicidal activity against Blumeria graminis infected wheat plants exposed to compound treatment 1 day post infection assessed as disease curative activity measured after 1 or 2 weeks; assay type: functional, organism-based

SMILES: CO/C=C(/C(=O)OC)c1ccccc1CO/N=C(\SC(C)C)c1cc(C(F)(F)F)cc(C(F)(F)F)c1
- Activity [1]: 85%

SMILES: CO/N=C(/C(=O)OC)c1ccccc1CO/N=C(\SC(C)C)c1cc(C(F)(F)F)cc(C(F)(F)F)c1
- Activity [1]: 85%

SMILES: CO/C=C(/C(=O)OC)c1ccccc1CO/N=C(/c1cc(C(F)(F)F)cc(C(F)(F)F)c1)[S+](C)[O-] (stereo unspecified)
- Activity [1]: 70%

SMILES: CO/C=C(/C(=O)OC)c1ccccc1CO/N=C(/c1cc(C(F)(F)F)cc(C(F)(F)F)c1)S(C)(=O)=O
- Activity [1]: 70%

SMILES: CO/C=C(/C(=O)OC)c1ccccc1CO/N=C(\SC)c1cc(C(F)(F)F)cc(C(F)(F)F)c1
- Activity [2]: 100%
- Activity [3]: 93%
- Activity [4]: 75%
- Activity [1]: 100%
- Activity [5]: 98%

SMILES: CNC(=O)/C(=N/OC)c1ccccc1CO/N=C(\SC)c1cc(C(F)(F)F)cc(C(F)(F)F)c1
- Activity [2]: 100%
- Activity [3]: 25%
- Activity [1]: 100%
- Activity [5]: 40%

SMILES: CO/N=C(/C1=NOCCO1)c1ccccc1CO/N=C(\SC)c1cc(C(F)(F)F)cc(C(F)(F)F)c1
- Activity [2]: 100%
- Activity [3]: 10%
- Activity [1]: 100%
- Activity [5]: 20%

SMILES: CO/N=C(/C(=O)OC)c1ccccc1CO/N=C(\SC)c1cc(C(F)(F)F)cc(C(F)(F)F)c1
- Activity [2]: 80%
- Activity [1]: 100%

SMILES: COC(=O)N(OC)c1ccccc1CO/N=C(\SC)c1cc(C(F)(F)F)cc(C(F)(F)F)c1
- Activity [2]: 90%
- Activity [3]: 30%
- Activity [1]: 90%
- Activity [5]: 65%

SMILES: CO/C=C(/C(=O)OC)c1ccccc1CO/N=C(\OC)c1cc(C(F)(F)F)cc(C(F)(F)F)c1
- Activity [2]: 100%
- Activity [3]: 100%
- Activity [6]: 80%
- Activity [7]: 100%
- Activity [4]: 98%
- Activity [8]: 92%
- EC50 [9]: 0.8 µg/mL (≈ 1.63 µM)
- EC90 [9]: 1.4 µg/mL (≈ 2.85 µM)
- Activity [1]: 100%
- Activity [10]: 60%
- Activity [11]: 100%
- Activity [12]: 100%
- Activity [13]: 20%
- Activity [14]: 81%
- EC50 [15]: 1.2 µg/mL (≈ 2.44 µM)
- EC90 [15]: 2.8 µg/mL (≈ 5.7 µM)
- Activity [16]: 56%
- Activity [17]: 59%
- EC50 [18]: 0.8 µg/mL (≈ 1.63 µM)
- EC90 [18]: 1.5 µg/mL (≈ 3.05 µM)
- Activity [19]: 100%
- Activity [20]: 100%
- Activity [21]: 94%
- Activity [22]: 20%
- Activity [5]: 100%
- Activity [23]: 50%
- Activity [24]: 82%
- EC50 [25]: 1.5 µg/mL (≈ 3.05 µM)
- EC90 [25]: 4.8 µg/mL (≈ 9.77 µM)

SMILES: CO/N=C(\C(=O)OC)c1ccccc1CO/N=C(\C)c1cccc(C(F)(F)F)c1
- Activity [2]: 100%
- Activity [3]: 98%
- Activity [4]: 75%
- Activity [1]: 100%
- Activity [5]: 100%

SMILES: CO/C=C(/C(=O)OC)c1ccccc1Oc1cc(Oc2ccccc2C#N)ncn1 [AZOXYSTROBIN]
- Activity [2]: 100%
- Activity [3]: 80%
- Activity [6]: 60%
- Activity [7]: 100%
- Activity [4]: 62%
- Activity [8]: 80%
- EC50 [9]: 0.8 µg/mL (≈ 1.98 µM)
- EC90 [9]: 2.1 µg/mL (≈ 5.21 µM)
- Activity [1]: 100%
- Activity [10]: 50%
- Activity [11]: 95%
- Activity [12]: 90%
- Activity [13]: 15%
- Activity [14]: 65%
- EC50 [15]: 1.7 µg/mL (≈ 4.21 µM)
- EC90 [15]: 7 µg/mL (≈ 17.4 µM)
- Activity [16]: 55%
- Activity [17]: 35%
- EC50 [18]: 1.2 µg/mL (≈ 2.97 µM)
- EC90 [18]: 4.5 µg/mL (≈ 11.2 µM)
- Activity [19]: 90%
- Activity [20]: 80%
- Activity [21]: 89%
- Activity [22]: 20%
- Activity [5]: 85%
- Activity [23]: 52%
- Activity [24]: 78%
- EC50 [25]: 1.7 µg/mL (≈ 4.21 µM)
- EC90 [25]: 5.9 µg/mL (≈ 14.6 µM)

SMILES: CNC(=O)/C(=N/OC)c1ccccc1Oc1ccccc1 [METOMINOSTROBIN]
- Activity [2]: 100%
- Activity [3]: 85%
- Activity [4]: 65%
- Activity [1]: 100%
- Activity [5]: 95%
